We go through one compound from patent US20090068143A1, “ORALLY EFFECTIVE C[…]” (priority 2005, published 2009).

This series concerns MBP induced acute EAE. As to the kind of experiment: MBP induced acute EAE. It counts as in vivo, Lewis rats. The method, then: In the present study, EAE was induced by injection of Myelin Basic Protein (MBP), a method known to model the acute phase of MS. In this model the onset of the disease is observed by the appearance of clinical symptoms about 10 days after induction. The disease progresses and the clinical score increases and peaks around day 15 and spontaneous recovery is observed around day 23 after induction of the disease.
Female Lewis rats (average body weight 130-180 g, Harlan, Israel) were injected s.c. into the hind paws with 25 μg of purified guinea pig myelin basic protein (MBP, Sigma) emulsified in 0.1 ml of Complete Freund's Adjuvant (Difco). Animals were maintained on a 12 hours light/12 hours dark regimen, at a constant temperature of 22° C., with food and water ad libitum. Starting from day 8 following induction, animals were followed up on a daily basis. The results are recorded as clinical score; score of 0 indicates a normal animal with no clinical signs, 0.5 indicates a loss of tonicity in the tail's distal part, 1 indicates whole tail paralysis, 1.5 indicates hind legs weakness in one leg, 2 indicates hind legs weakness in two legs, 2.5 indicates fore legs paralysis in one leg, 3 indicates paralysis of all four legs, 4 indicates complete body paralysis and moribund state and 5 indicates death. The clinical score of the animals is recorded for 15 days following onset of disease until the end of the study 25 days following induction and the area under the curve (AUC) is calculated over this period of time.
Few routes of administration were assessed and the treatments were either administered intravenously (in CE vehicle) or orally by gavage (in PB vehicle) at volume dose of 5 ml/kg.
Results are expressed as mean±SEM and the differences between the treatment groups were analyzed by analysis of variance (ANOVA) followed by Tukey's post hoc test. A value of p<0.05 was considered to be statistically significant and is indicated on the figure by an asterisk over the relevant treatment group.
Compound 18A was dissolved in CREMOPHOR EL®:ethanol and further diluted in physiological buffer prior to i.v. administration. It is now disclosed that compound 18F could be dissolved directly in 80 mM phosphate buffer (pH 6.4) and administered p.o. Compound 18F was administered by oral gavage at doses of 20, 30, 40, 50 and 60 mg/kg to animals showing clinical signs of the disease. Each treatment group comprised at least 10 animals at onset of disease. At some doses, experiments were repeated up to four times.

Consider `CCCCCCC(C)(C)c1cc(O)c([C@H]2CC(=O)C3CC2C3(C)C)c(OC(=O)/C=C/C(=O)O)c1` (single isomer, unassigned; (-)) [Compound 18F, (−)-4-{4-[1,1-Dimethylheptyl]-2-fumarate-6-hydroxy-phenyl}-6,6-dimethyl-bicyclo[3.1.1]heptan-2-one], for which the “effect on clinical outcome (mean group score)” value reads like this: (20 mg/kg p.o.) “does not significantly affect the clinical outcome”; (30 mg/kg p.o.) “positive trend of score reduction”. Besides, for the setting “20 mg/kg p.o.”, the “effect on mean of maximal scores (MMS)” value is reported as “only a trend of improvement”. The “reduction of AUC” value (30 mg/kg p.o., ns) is recorded as “more than 20%”; the “reduction of AUC” value (40 mg/kg p.o., p<0.05) is 33%; the “reduction of AUC” value (50 mg/kg p.o., p<0.05) is reported as 42%; the “reduction of AUC” value (60 mg/kg p.o., p<0.05) is 43%. Where the note is “60 mg/kg p.o.”, the “animals died before study completion” value came out at 7%. For the same compound, the “increase of pain threshold over vehicle treated animals (mechanical hyperalgesia)” value (60 mg/kg p.o., preliminary) was determined as 25%. Further, the “reduction in MMS” value (30-60 mg/kg p.o.) is given as “at least 30%”. Besides, the “CB1 mediated side effects” value (repeated p.o. administration) is on record as “no CB1 mediated side effects were observed”.
